Measurements: patent publication US20070081948A1, “Dry powder composition comprising a benzodiazepine for pulmonary inhalation” (Vectura Limited, priority 2003, published 2007)

Assay: Emitted 6.8 micron particle fraction from vortex chamber versus ratio of chamber diameter to exit port diameter
Format: physicochemical
Conditions: for Normalised average particle fraction <6.8 μm (%): emitted fraction divided by fraction of the loaded powder
Text: The normalised average 6.8 micron particle fraction is the emitted 6.8 micron particle fraction divided by the 6.8 micron particle fraction of the powdered medicament loaded into the inhaler. The medicament used was pure Intal™ sodium cromoglycate (Fisons UK).

## O=C(O)c1cc(=O)c2c(OCC(O)COc3cccc4oc(C(=O)O)cc(=O)c34)cccc2o1 [sodium cromoglycate]
Ratio D/De 2.0
  Average particle fraction <6.8 μm (%): 64.7%
  Normalised average particle fraction <6.8 μm (%): 73.1%
Ratio D/De 3.1
  Average particle fraction <6.8 μm (%): 70.8%
  Normalised average particle fraction <6.8 μm (%): 79.9%
Ratio D/De 4.0
  Average particle fraction <6.8 μm (%): 75.5%
  Normalised average particle fraction <6.8 μm (%): 85.2%
Ratio D/De 6.0
  Average particle fraction <6.8 μm (%): 81.0%
  Normalised average particle fraction <6.8 μm (%): 91.4%
Ratio D/De 7.1
  Average particle fraction <6.8 μm (%): 83.5%
  Normalised average particle fraction <6.8 μm (%): 94.3%
Ratio D/De 8.0
  Average particle fraction <6.8 μm (%): 83.2%
  Normalised average particle fraction <6.8 μm (%): 93.9%
Ratio D/De 8.6
  Average particle fraction <6.8 μm (%): 80.6%
  Normalised average particle fraction <6.8 μm (%): 91.0%
